According to PMC7870626, “Neurotoxicity and underlying cellular changes of 21 mitochondrial respiratory chain inhibitors” (Archives of Toxicology, 2021):
Entries after “also recorded” stand apart in the source; their conditions may differ. Where two headings read alike, the source gives them in different places.

Experiments:
SH-SY5Y cells [1] = format: cell-based, human; conditions: up to 10 µM; for Neurite degeneration: 24 h exposure, without affecting viability; for Neurite degeneration (in words) / Reduction in viability: 120 h exposure
Procedure: The cells are able to form neurites and display several dopaminergic characteristics. […] Differentiation was initiated 24 h later (on day 0, d0) by exchange to 100 µl/well differentiation medium (DMEM:F12, supplemented with 1 µM all-trans retinoic acid (RA), 1 × N2 supplement, 2 mM L-glutamine, 100 µg/ml streptomycin, and 100 U/ml penicillin). All media and supplements were obtained from Gibco (ThermoFisher) except from RA (Sigma).
On d3, 100 µl of fresh differentiation medium were added to the wells. For the 120 h exposure, this medium contained twice the final treatment concentration. On d6, 100 µl from each well were removed, and the procedure was repeated and the cells were analyzed on d8. For the 24 h exposure, cells received an addition of 100 µl pure differentiation medium on d3 and were treated with compounds as described above on d6 for 24 h before analysis. […] The cells were incubated with the stain mixture for 20 min at 37 °C, 5% CO2. After incubation, 130 µL of differentiation medium were added to all the wells to stop further staining of the cells. Images were obtained using ImageXpress® Micro (Molecular Devices). […] The mean neurite length was calculated using the Neurite Outgrowth plug-in in the MetaXpress® Software. Outgrowths were defined as cytoplasmic prolongations with a maximum width of 2 µm (3 pixels). The minimum outgrowth size needed to be logged as significant was defined as 15 µm (23 pixels).

SH-SY5Y cells [2] = experiment: Mitochondrial membrane potential (rhodamine 123), KE2 assay; format: cell-based, human; conditions: for EC25: Homo sapiens; for Ratios of EC25 KE4/KE2 MMP: NeuriTox neurite EC25 relative to SH-SY5Y MMP EC25
Procedure: Cells were plated at a cell density of 29,500 cells/cm^2 and handled as described above for the neurite SH-SY5Y degeneration. On d6 of differentiation, 50% of the medium was replaced by differentiation medium containing 2 µM Rhodamine 123 (ThermoFisher). After 45 min of preloading at 37 °C with 5% CO2 in darkness, the Rhodamine 123 solution was completely removed and cells were carefully washed once with 200 µl DMEM:F12. Subsequently, 50 µl differentiation medium per well were added followed by the addition of 50 µl/well of test compounds in medium. After 24 h of exposure to the test compounds, the nuclei were stained for 30 min with 20 µL of a solution containing 20 µM Hoechst 33342, and the images were then acquired with a 10 × objective lens using the ImageXpress® Micro (Molecular Devices) high content microplate imager. Nuclei were evaluated in the DAPI channel (excitation 377 ± 50 nm, emission 447 ± 60 nm), whereas Rhodamine 123 fluorescence was detected in the FITC channel (excitation 475 ± 34 nm, emission 536 ± 40 nm). Analysis of the Hoechst 33,342 and Rhodamine 123 fluorescence was performed using the MetaXpress® Software (Molecular Devices) with the Transfluor HT plug-in and the parameters nuclei (for Hoechst-33342) and integrated granule intensity (for Rhodamine 123). Mitochondrial membrane potential (MMP) was quantified as the total fluorescence intensity of Rhodamine 123 in relation to the number of Hoechst-stained nuclei.

LUHMES cells [3] = experiment: Mitochondrial respiration of intact LUHMES cells (Seahorse OCR); format: cell-based, human; conditions: d3 LUHMES, acute treatment, highest non-cytotoxic concentration (cII inhibitors 100 µM)
Procedure: Respiration of intact LUHMES cells was performed as described earlier (Delp et al. [2018a], [2019]). Briefly, 48 h differentiated cells were re-seeded into Agilent Seahorse XFe24-well plates in DM without cAMP and GDNF at a density of 100,000 cells/cm^2 and cultured for 24 h before the assay was initiated. Inhibition of respiration was calculated as the difference between baseline measurements (i.e., after equilibration, last measurement before treatment) and the first measurement after treatment with the test compound.

cI [4] = biological target: T1, cI (Homo sapiens, UniProt O75251+O75306+P03886); format: cell-based; conditions: permeabilized LUHMES; capsaicin 50 µM, mepronil 100 µM
T1 construct: endogenous in cells; host or cells: LUHMES cells, digitonin-permeabilized
Procedure: (§1) To investigate individual respiratory chain complexes, a method developed earlier and described extensively was used (Delp et al. [2019]). In brief, LUHMES cells were seeded at a density of 205,000 cells/cm^2 in PM into Agilent Seahorse XFe24-well plates. […] To reduce data variability, internal normalization of the OCR of each well was done relative to its value after equilibration.

cI [5] = test system: cI; set-up: method as in van der Stel et al. 2020; conditions: liver and kidney cells ref van der Stel et al. 2020; read-out: IC50 for inhibition of cI; cited from earlier work
cII [6] = biological target: T2, cII (Homo sapiens, UniProt O14521+P21912+Q99643); experiment: Respiratory chain complex activity in permeabilized LUHMES cells: cII; format: cell-based; conditions: mepronil at 100 µM
T2 construct: endogenous in cells; host or cells: LUHMES cells, digitonin-permeabilized
Procedure: as §1

LUHMES cells [7] = experiment: LUHMES 120 h exposure scenario, neurite effects; format: cell-based, human
Procedure: The NeuriTox test was performed as previously described (Delp et al. [2018b]; Krug et al. [2013a]; Stiegler et al. [2011]). Briefly, cells differentiated for 48 h were re-seeded into 96-well plates at a density of 100,000 cells/cm^2 in DM without cAMP and GDNF, and treated 1 h after seeding for 24 h. Subsequently, multiple endpoints were determined, e.g., neurite outgrowth (i.e., NeuriTox test), resazurin reduction, intracellular ATP content, gene expression levels from TempO-Seq analysis, and proteasomal activity. For the 120 h exposure scenario, LUHMES cells were differentiated for another 3 days after reseeding before they were treated on day 5 (d5) and d7 by a half medium exchange. Endpoints were determined on d10 of differentiation.
Image acquisition and analysis was performed as described previously (Krug et al. [2013a]; Schildknecht et al. [2013]; Stiegler et al. [2011]). In brief, cells were live-stained with 1 µg/ml Hoechst H-33342 and 1 µM calcein-AM and image acquisition was done by an automated high content imager (Cellomics, Waltham, MA, USA). Cell viability was determined as ratio of live cells (cell bodies being Calcein- and Hoechst-positive) relative to the total amount of cells (Hoechst-positive cell bodies). Neurite area was calculated by subtracting the somatic area (Hoechst-positive area plus surrounding) from the calcein-positive area.

cIII = biological target: T3, cIII (Homo sapiens, UniProt P00156); experiment: Respiratory chain complex activity in permeabilized LUHMES cells: cIII; format: cell-based
T3 construct: endogenous in cells; host or cells: LUHMES cells, digitonin-permeabilized
Procedure: as §1

HepG2 cells = test system: HepG2 cells; set-up: method as in van der Stel et al. 2020; conditions: ref van der Stel et al. 2020; cited from earlier work
cII [8] = test system: cII; set-up: method as in van der Stel et al. 2020; conditions: read-out: Concentration at which 50% inhibition was observed; HepG2 cells ref van der Stel et al. 2020; cited from earlier work
[9] = SH-SY5Y differentiated 6 days, treated 24 h, rhodamine-123, read-out: pEC25 MMP (concentration where MMP was reduced by 25%) (converted)

T2 sequence (P21912 29-280): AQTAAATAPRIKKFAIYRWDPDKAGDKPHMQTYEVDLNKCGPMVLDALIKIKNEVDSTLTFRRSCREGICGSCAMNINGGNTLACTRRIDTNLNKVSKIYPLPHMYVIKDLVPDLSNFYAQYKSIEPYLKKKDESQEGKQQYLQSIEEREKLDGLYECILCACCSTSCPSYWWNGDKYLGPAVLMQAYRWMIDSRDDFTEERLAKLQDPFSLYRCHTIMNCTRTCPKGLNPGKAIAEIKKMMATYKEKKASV
T2 sequence (Q99643 30-169): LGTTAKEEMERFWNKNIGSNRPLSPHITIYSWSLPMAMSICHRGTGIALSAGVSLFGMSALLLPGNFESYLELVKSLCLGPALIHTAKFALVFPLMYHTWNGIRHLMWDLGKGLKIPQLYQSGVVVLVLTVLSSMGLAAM
T2 sequence (O14521 57-159): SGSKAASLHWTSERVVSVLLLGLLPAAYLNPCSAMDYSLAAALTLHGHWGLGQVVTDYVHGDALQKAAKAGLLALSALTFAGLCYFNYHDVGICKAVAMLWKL
T2 sequence (P31040 43-664 partner): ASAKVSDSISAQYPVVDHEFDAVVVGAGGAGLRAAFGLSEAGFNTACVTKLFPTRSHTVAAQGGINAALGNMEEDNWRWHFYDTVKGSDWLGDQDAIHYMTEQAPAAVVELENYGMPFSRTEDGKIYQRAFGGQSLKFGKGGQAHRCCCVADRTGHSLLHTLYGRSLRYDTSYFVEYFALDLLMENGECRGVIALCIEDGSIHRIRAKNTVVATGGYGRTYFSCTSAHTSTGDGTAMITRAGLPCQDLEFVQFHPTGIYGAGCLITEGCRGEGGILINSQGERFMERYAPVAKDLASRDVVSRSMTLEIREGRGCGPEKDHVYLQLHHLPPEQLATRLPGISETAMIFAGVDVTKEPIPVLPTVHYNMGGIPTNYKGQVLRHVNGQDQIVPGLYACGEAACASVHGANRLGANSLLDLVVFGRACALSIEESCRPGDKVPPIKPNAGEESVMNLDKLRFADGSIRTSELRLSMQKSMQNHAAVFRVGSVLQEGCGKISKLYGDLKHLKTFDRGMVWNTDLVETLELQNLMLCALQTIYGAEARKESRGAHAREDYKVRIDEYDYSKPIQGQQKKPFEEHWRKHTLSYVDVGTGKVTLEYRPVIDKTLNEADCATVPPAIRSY
T1 sequence (O75306 34-463): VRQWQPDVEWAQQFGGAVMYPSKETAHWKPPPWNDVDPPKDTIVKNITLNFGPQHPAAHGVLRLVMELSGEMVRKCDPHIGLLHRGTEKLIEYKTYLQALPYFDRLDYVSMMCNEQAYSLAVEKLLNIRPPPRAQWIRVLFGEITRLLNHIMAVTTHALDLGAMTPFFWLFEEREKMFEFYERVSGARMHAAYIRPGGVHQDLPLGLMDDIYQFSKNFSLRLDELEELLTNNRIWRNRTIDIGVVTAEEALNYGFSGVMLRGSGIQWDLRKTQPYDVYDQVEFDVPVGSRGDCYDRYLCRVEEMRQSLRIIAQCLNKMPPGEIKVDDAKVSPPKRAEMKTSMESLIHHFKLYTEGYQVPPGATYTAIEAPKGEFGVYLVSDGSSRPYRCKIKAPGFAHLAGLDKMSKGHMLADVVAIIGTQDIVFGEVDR
T1 sequence (P03886 whole entry): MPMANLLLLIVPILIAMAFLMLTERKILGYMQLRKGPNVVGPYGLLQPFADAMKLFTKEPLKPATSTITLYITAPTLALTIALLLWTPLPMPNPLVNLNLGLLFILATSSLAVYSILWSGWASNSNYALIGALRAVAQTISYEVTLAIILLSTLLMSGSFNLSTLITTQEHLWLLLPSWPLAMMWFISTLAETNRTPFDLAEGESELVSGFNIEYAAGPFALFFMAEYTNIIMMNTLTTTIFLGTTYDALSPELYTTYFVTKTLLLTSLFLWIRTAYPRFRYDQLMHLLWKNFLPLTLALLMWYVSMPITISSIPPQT
T1 sequence (O75251 39-213): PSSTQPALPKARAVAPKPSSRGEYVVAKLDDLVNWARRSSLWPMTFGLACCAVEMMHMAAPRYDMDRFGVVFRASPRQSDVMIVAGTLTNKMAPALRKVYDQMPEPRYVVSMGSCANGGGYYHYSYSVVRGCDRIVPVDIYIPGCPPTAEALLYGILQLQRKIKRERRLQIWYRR

Structure (SMILES)	Neurite degeneration (SH-SY5Y cells [1])	Neurite degeneration (in words) (SH-SY5Y cells [1])	Reduction in viability (SH-SY5Y cells [1])	EC25 (SH-SY5Y cells [2]; [9])	Ratios of EC25 KE4/KE2 MMP (SH-SY5Y cells [2])	Inhibition of total mitochondrial respiration of intact cells (LUHMES cells [3])	Inhibition of cII activity (in words) (cII [6])	Increase in sensitivity of neurite EC25, 120 h versus 24 h exposure (LUHMES cells [7])	other results
CCCCCC[C@H]1C(=O)O[C@H](C)[C@H](NC(=O)c2cccc(NC=O)c2O)C(=O)O[C@@H](C)[C@@H]1OC(=O)CC(C)C [Antimycin A]	> 25%	degeneration of neurites	> 25%	63.1 nM	257	strong inhibitory effects			
COc1cc(CNC(=O)CCCC/C=C/C(C)C)ccc1O [Capsaicin]				> 10000 nM		weak response			Inhibition of cI activity (in words) (cI [4]): no significant response; IC50 (cI [5]): > 200000 nM
CC1=C(C(=O)Nc2ccccc2)SCCO1 [Carboxin]				1580 nM	48		strong inhibition of cII		Decrease of the MMP reached (SH-SY5Y cells [2]; SH-SY5Y, 24 h, non-cytotoxic concentrations): at least 50%
Cc1ccc(-c2c(Cl)nc(C#N)n2S(=O)(=O)N(C)C)cc1 [Cyazofamid]	> 25%	degeneration of neurites; also recorded: increased neurite degeneration	> 25%	200 nM	225	inactive		five-to-eightfold	Inhibition of cIII activity (in words) (cIII; cIII electron donor): not active at all; Uncoupling action (cIII; neuronal mitochondria, 50 µM): uncoupling action; Mode of action found in HepG2 cells (HepG2 cells): uncoupler
COc1cc2c(cc1OC)[C@@H]1C(=O)c3ccc4c(c3O[C@@H]1CO2)C=CC(C)(C)O4 [Deguelin]	no effects	degeneration of neurites; also recorded: increased neurite degeneration	> 25%	316 nM	13			five-to-eightfold	
Cc1ccccc1C(=O)Nc1cccc(OC(C)C)c1 [Mepronil]				5010 nM			significant, but weak inhibitor		Inhibition of cI activity (in words) (cI [4]): weakly affected cI; IC50 (cII [8]): > 100000 nM
COC(=O)N(OC)c1ccccc1COc1ccn(-c2ccc(Cl)cc2)n1 [Pyraclostrobin]				316 nM	85			five-to-eightfold	
CCOCCc1ccc(OCCN=c2[nH]cnc(CC)c2Cl)c(C)c1C [Pyrimidifen]				794 nM	21			9.8 fold	
C=C(C)[C@H]1Cc2c(ccc3c2O[C@@H]2COc4cc(OC)c(OC)cc4[C@@H]2C3=O)O1 [Rotenone]	> 25%	degeneration of neurites	> 25%		2.1				EC25 (SH-SY5Y cells [2]; SH-SY5Y, 24 h, read-out: pEC25 MMP (concentration where MMP was reduced by 25%)): 39.8 nM
Cc1nc(C(F)(F)F)c(C(=O)Nc2c(Br)cc(OC(F)(F)F)cc2Br)s1 [Thifluzamide]				> 10000 nM			strong inhibition of cII	five-to-eightfold	
